Results: patent publication US20240293558A1, “KRAS INHIBITOR CONJUGATES” (Erasca, Inc., priority 2021, published 2024)
Where two headings read alike, the source gives them in different places.

Assays:
[1] = target: T1, KRAS G12D (Homo sapiens, UniProt P01116, G12D); test: In-vitro RAS-RAF binding assay (RRB), HTRF/FRET; type: biochemical; set-up: Biotinylated KRAS protein amino acids 1-169 (produced at Erasca); made in house; details: read-out: Inhibition of RAS-RAF Binding (in-vitro) KRAS (G12D) IC50
In short: (§1)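 Biotinylated KRAS 1-169 (streptavidin-terbium donor, 30 nM) and GST-cRAF RBD (anti-GST d2 acceptor, 30 nM) in HEPES pH 7.5, NaCl, MgCl2, DTT buffer. After compound incubation, SOS1 catalytic domain plus GTPgS drive 60 min nucleotide exchange. HTRF FRET read at equilibrium, in duplicate.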
Target sequence in this assay (P01116 1-169 isoform P01116-2 G12D): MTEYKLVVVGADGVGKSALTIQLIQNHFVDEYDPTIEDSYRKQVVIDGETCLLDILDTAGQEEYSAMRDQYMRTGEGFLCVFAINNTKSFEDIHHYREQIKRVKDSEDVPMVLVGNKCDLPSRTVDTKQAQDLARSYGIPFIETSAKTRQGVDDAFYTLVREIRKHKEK

[2] = target: T1, KRAS G12D; test: Degradation of KRas G12D in AsPC-1 cells, Western blot; type: cell-based; set-up: endogenous in cells; host or cells: AsPC-1 (ATCC CRL-1682); details: AsPC-1 cells, FIGS. 1-5
Description: This Example illustrates that the compounds presented herein degrade KRAS G12D.
AsPC-1 cells (ATCC CRL-1682) expressing G12D were grown in RPMI-1640 medium supplemented with 10% fetal bovine serum, and Penicillin/Streptomycin. Cell were plated in 6-well tissue culture plates at a density of 1 million cells/well and allowed to attach for overnight. Diluted compounds were then added in a final concentration of 0.2% DMSO. After 24 hour treatment, the medium was removed, and the plate was washed three times with ice-cold PBS. 50ul of the RIPA cell lysis buffer (ThermoFisher 89901) supplemented with protease inhibitor (Roche 4693116001) and Phosphatase Cocktail A and B inhibitor (Bimake B15002; Bimake Houston TX) was added to each well, the adherent cells were scratched off, and transferred into pre-cold centrifuge tubes. After vigorous vortex, the tubes were incubated on ice for 30 minutes, centrifuged 14,000 rpm for 10 min at 4° C., and the supernatant were transferred into fresh tubes kept on ice. The protein concentration of the supernatant was determined with bicinchoninic acid method (BCA) (ThermoFisher 23227). Samples were prepared to the final concentration of 30ug in 20ul using NuPAGE LDS Sample Buffer (Invitrogen NP0007), NuPAGE Sample Reducing Agent (Invitrogen NP0009), and RIPA cell lysis buffer, and boiled at 95° C. for 15 minutes in water bath.
The levels of KRAS protein and phosphorylated ERK1/2 were determined by Western blotting. 20 μL of protein sample mixture was loaded into each well of 1.5 mm 4-12% Bis-Tris gel (Invitrogen NP0335), and run at 80V in stacking gel and 120 V in separating gel for about 2 h in MOPS running buffer (Invitrogen NP0001). The gel was transferred to the membrane (20V, 7 min) with Invitrogen iBlot2, and blocked with Li-Cor blocking buffer (LI-COR 927-60001; Li-Cor Biotechnology, Lincoln NE) for at least 1 h at room temperature. Primary antibodies diluted in the blocking buffer were added and incubated at 4° C. overnight. As the primary antibodies, KRAS (Proteintech 12063-1-AP), G12D Mutant Specific KRAS (Cell Signaling Technology 14429S), ERKI1/2 (Cell Signaling Technology 4695S), Phospho-ERKI1/2 (Cell Signaling Technology 4370S), and GAPDH (Millipore MAB374) were used. The membrane was washed 4 times with TBST (0.10% Tween20®; ThermoFisher 28360) for 5 minutes at room temperature, then incubated with Li-Cor anti-rabbit-800 (LI-COR 926-68070) and anti-mouse-680 (LI-COR-926-32211) diluted in Li-Cor blocking buffer with the ratio of 1:15,000 to visualize the primary antibodies for 1 hour at room temperature. Then membrane was washed 4 times with TBST (0.1% Tween20) 5 minutes. The signal intensities of bands were quantified by Li-Cor Odyssey CLX.
The KRas and phosphor-ERK1/2 signals were normalized to the GAPDH signal for each lane and percent of DMSO values were calculated to determine the degradation of KRas and the inhibition of ERK1/2 phosphorylation upon the compound treatment.
Target sequence in this assay (P01116 1-188 isoform P01116-2 G12D): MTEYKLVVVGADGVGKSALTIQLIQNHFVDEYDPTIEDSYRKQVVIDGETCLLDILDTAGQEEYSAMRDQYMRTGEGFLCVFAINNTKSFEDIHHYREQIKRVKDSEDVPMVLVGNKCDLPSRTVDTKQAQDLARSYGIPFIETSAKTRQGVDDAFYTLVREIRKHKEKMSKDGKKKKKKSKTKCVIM

[3] = target: T2, KRAS (WT) (Homo sapiens, UniProt P01116); test: In-vitro RAS-RAF binding assay (RRB), HTRF/FRET; type: biochemical; details: read-out: Inhibition of RAS-RAF Binding (in-vitro) KRAS (WT) IC50
T2 construct: Biotinylated KRAS protein amino acids 1-169 (produced at Erasca); made in house
In short: as §1

[4] = target: T3, KRas G12D fused to HiBiT peptide (Homo sapiens, UniProt P01116, G12D); test: ASPC-1 HiBit assay to determine G12D degradation; type: cell-based; details: AsPC-1 HiBiT cells, 24-hour incubation; read-out: ASPC-1 HiBit DC50 (C)
T3 construct: endogenous in cells; host or cells: AsPC-1 HiBiT knock-in single clone (Cas9 RNP + ssODN)
In short: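 Homozygous AsPC-1 clone with N-terminal HiBiT knock-in on endogenous KRas G12D, 24 h compound exposure, top dose 10 μM, 3-fold, 10 points, 1% DMSO. Lytic HiBiT luminescence normalised to DMSO and inhibitor controls gives % degradation; DC50 from 4-parameter fit after hook-effect points removed.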

[5] = Table 2, average of multiple runs of each compound

T2 sequence (P01116 1-169 isoform P01116-2): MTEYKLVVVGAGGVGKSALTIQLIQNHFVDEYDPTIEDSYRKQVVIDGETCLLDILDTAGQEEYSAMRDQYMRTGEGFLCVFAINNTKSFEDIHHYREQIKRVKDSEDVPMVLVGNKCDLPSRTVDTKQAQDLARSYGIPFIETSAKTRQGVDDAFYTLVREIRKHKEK
T3 sequence (P01116 1-188 isoform P01116-2 G12D): as the sequence (P01116 1-188 isoform P01116-2 G12D) above

Row | Compound | IC50 ([1]; Table 1) [nM] | IC50 [1, 5] [nM] | KRAS G12D degradation (Western blot), result in words [2] | IC50 ([3]; Table 1) [nM] | IC50 [3, 5] [nM] | DC50 [4] [nM]
1 | Cc1ncsc1-c1ccc([C@H](C)NC(=O)[C@@H]2C[C@@H](O)CN2C(=O)[C@@H](NC(=O)CCOCCCN2CCC[C@H]2COc2nc(N3CC4CCC(C3)N4)c3cc(Cl)c(-c4ccc(F)c5sc(N)nc45)c(F)c3n2)C(C)(C)C)cc1 [Example 4, (2S,4R)-1-[(2S)-2-[3-[3-[(2S)-2-[[7-(2-amino-7-fluoro-1,3-benzothiazol-4-yl)-6-chloro-4-(3,8-diazabicyclo[3.2.1]octan-3-yl)-8-fluoro-quinazolin-2-yl]oxymethyl]pyrrolidin-1-yl]propoxy]propanoylamino]-3,3-dimethylbutanoyl]-4-hydroxy-N-[(1S)-1-[4-(4-methylthiazol-5-yl)phenyl]ethyl]pyrrolidine-2-carboxamide] | 13 | 15.1 | successful degradation | 134 | 216 | –
2 | C[C@H](NC(=O)[C@@H]1C[C@@H](O)CN1C(=O)[C@@H](NC(=O)CCOCCCN1CCC[C@H]1COc1nc(N2CC3CCC(C2)N3)c2cc(C(F)(F)F)c(-c3ccc(F)c4sc(N)c(C#N)c34)c(F)c2n1)C(C)(C)C)c1ccc(-c2ccccc2Cl)cc1 [Example 95, (2S,4R)-1-((2S)-2-(3-(3-((2S)-2-((((7S)-7-(2-amino-3-cyano-7-fluorobenzo [b]thiophen-4-yl)-4-(3,8-diazabicyclo [3.2.1]octan-3-yl)-8-fluoro-6-(trifluoromethyl)quinazolin-2-yl)oxy)methyl)pyrrolidin-1-yl)propoxy)propanamido)-3,3-dimethylbutanoyl)-N—((S)-1-(2′-chloro-[1,1′-biphenyl]-4-yl)ethyl)-4-hydroxypyrrolidine-2-carboxamide] | – | 8.5 | – | – | 65 | 43
3 | C[C@H](NC(=O)[C@@H]1C[C@@H](O)CN1C(=O)[C@@H](NC(=O)CCOCCCN1CCC[C@H]1COc1nc(N2CC3CCC(C2)N3)c2cc(Cl)c(-c3ccc(F)c4sc(N)c(C#N)c34)c(F)c2n1)C(C)(C)C)c1ccc(-c2ccccc2Cl)cc1 [Example 96, (2S,4R)-1-((2S)-2-(3-(3-((2S)-2-((((7R)-7-(2-amino-3-cyano-7-fluorobenzo[b]thiophen-4-yl)-4-(3,8-diazabicyclo[3.2.1]octan-3-yl)-6-chloro-8-fluoroquinazolin-2-yl)oxy)methyl)pyrrolidin-1-yl)propoxy)propanamido)-3,3-dimethylbutanoyl)-N—((S)-1-(2′-chloro-[1,1′-biphenyl]-4-yl)ethyl)-4-hydroxypyrrolidine-2-carboxamide] | – | 9.2 | – | – | 156 | 75
4 | C#Cc1c(F)ccc2cc(O)cc(-c3ncc4c(N5CC6CCC(C5)N6)nc(OCCN5CCC6(CC5)CN(c5cc([C@H](C(=O)N7C[C@H](O)C[C@H]7C(=O)N[C@@H](C)c7ccc(-c8cccc(F)c8F)cc7)C(C)C)on5)C6)nc4c3F)c12 [Example 98, (2S,4R)-1-((2R)-2-(3-(7-(2-((4-(3,8-diazabicyclo[3.2.1]octan-3-yl)-7-(8-ethynyl-7-fluoro-3-hydroxynaphthalen-1-yl)-8-fluoropyrido[4,3-d]pyrimidin-2-yl)oxy)ethyl)-2,7-diazaspiro[3.5]nonan-2-yl)isoxazol-5-yl)-3-methylbutanoyl)-N—((S)-1-(2′,3′-difluoro-[1,1′-biphenyl]-4-yl)ethyl)-4-hydroxypyrrolidine-2-carboxamide] | – | 16 | – | – | 1430 | 107
5 | C#Cc1c(F)ccc2cc(O)cc(-c3ncc4c(N5CC6CCC(C5)N6)nc(OCCN5CCC6(CC5)CN(c5cc([C@H](C(=O)N7C[C@H](O)C[C@H]7C(=O)N[C@@H](C)c7ccc(-c8ccccc8Cl)cc7)C(C)C)on5)C6)nc4c3F)c12 [Example 99, (2S,4R)-1-((2R)-2-(3-(7-(2-((4-(3,8-diazabicyclo[3.2.1]octan-3-yl)-7-(8-ethynyl-7-fluoro-3-hydroxynaphthalen-1-yl)-8-fluoropyrido[4,3-d]pyrimidin-2-yl)oxy)ethyl)-2,7-diazaspiro[3.5]nonan-2-yl)isoxazol-5-yl)-3-methylbutanoyl)-N—((S)-1-(2′-chloro-[1,1′-biphenyl]-4-yl)ethyl)-4-hydroxypyrrolidine-2-carboxamide] | – | 16 | – | – | 1610 | 264
6 | C#Cc1c(F)ccc2cc(O)cc(-c3ncc4c(N5CC6CCC(C5)N6)nc(OCCN5CCC(Oc6cc([C@H](C(=O)N7C[C@H](O)C[C@H]7C(=O)N[C@@H](C)c7ccc(-c8c(F)cccc8F)cc7)C(C)C)on6)CC5)nc4c3F)c12 [Example 100, (2S,4R)-1-((2R)-2-(3-((1-(2-((4-(3,8-diazabicyclo[3.2.1]octan-3-yl)-7-(8-ethynyl-7-fluoro-3-hydroxynaphthalen-1-yl)-8-fluoropyrido[4,3-d]pyrimidin-2-yl)oxy)ethyl)piperidin-4-yl)oxy)isoxazol-5-yl)-3-methylbutanoyl)-N—((S)-1-(2′,6′-difluoro-[1,1′-biphenyl]-4-yl)ethyl)-4-hydroxypyrrolidine-2-carboxamide] | – | 14 | – | – | 2070 | 197
7 | C#Cc1c(F)ccc2cc(O)cc(-c3ncc4c(N5CC6CCC(C5)N6)nc(OCCN5CCC6(C5)CN(c5cc([C@H](C(=O)N7C[C@H](O)C[C@H]7C(=O)N[C@@H](C)c7ccc(-c8c(F)cccc8F)cc7)C(C)C)on5)C6)nc4c3F)c12 [Example 101, (2S,4R)-1-((2R)-2-(3-(6-(2-((4-(3,8-diazabicyclo[3.2.1]octan-3-yl)-7-(8-ethynyl-7-fluoro-3-hydroxynaphthalen-1-yl)-8-fluoropyrido[4,3-d]pyrimidin-2-yl)oxy)ethyl)-2,6-diazaspiro[3.4]octan-2-yl)isoxazol-5-yl)-3-methylbutanoyl)-N—((S)-1-(2′,6′-difluoro-[1,1′-biphenyl]-4-yl)ethyl)-4-hydroxypyrrolidine-2-carboxamide] | – | 13 | – | – | 1790 | 707
